In patent US7605163B2, “Benzoyl-piperazine derivatives” (Hoffmann-La Roche Inc., priority 2003, dated 2009):
pIC50: −log10 of the molar value.

Biological target: T1, mGlyT-1b (Mus musculus, UniProt P28571)
T1 construct: host or cells: Flp-in-CHO cells
T1 sequence (P28571 1-651 isoform P28571-2): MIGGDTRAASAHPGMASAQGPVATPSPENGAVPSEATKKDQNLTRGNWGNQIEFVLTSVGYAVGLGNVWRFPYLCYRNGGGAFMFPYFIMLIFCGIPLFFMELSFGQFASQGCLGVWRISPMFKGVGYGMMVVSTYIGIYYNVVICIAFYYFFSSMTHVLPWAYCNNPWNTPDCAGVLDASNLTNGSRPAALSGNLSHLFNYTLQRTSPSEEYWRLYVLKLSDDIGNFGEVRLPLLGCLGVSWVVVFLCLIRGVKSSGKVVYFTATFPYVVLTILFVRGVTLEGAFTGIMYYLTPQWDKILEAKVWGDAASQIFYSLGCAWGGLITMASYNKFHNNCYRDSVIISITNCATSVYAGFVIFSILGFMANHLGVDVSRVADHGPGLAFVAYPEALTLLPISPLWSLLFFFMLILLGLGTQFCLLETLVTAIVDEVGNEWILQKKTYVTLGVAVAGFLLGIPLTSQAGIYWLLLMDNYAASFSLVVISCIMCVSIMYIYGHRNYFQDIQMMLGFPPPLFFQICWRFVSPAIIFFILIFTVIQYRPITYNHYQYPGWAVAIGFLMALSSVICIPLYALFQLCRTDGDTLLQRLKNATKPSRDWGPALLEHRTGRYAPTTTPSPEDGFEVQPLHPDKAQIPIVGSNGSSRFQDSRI
Assay: Glycine Uptake Inhibition Assay (mGlyT-1b)
Assay type: cell-based
Conditions: [3H]-glycine uptake inhibition at GlyT-1, Flp-in-CHO cells transfected with mGlyT-1b cDNA
Description: DMEM complete medium: Nutrient mixture F-12 (Gibco Life-technologies), fetal bovine serum (FBS) 5%, (Gibco life technologies), Penicillin/Streptomycin 1% (Gibco life technologies), Hygromycin 0.6 mg/ml (Gibco life technologies), Glutamine 1 mM Gibco life technologies)
Uptake buffer (UB): 150 mM NaCl, 10 mM Hepes-Tris, pH 7.4, 1 mM CaCl2, 2.5 mM KCl, 2.5 mM MgSO4, 10 mM (+) D-glucose. Flp-in™-CHO (Invitrogen Cat n^o R758-07) cells stably transfected with mGlyT1b cDNA.
Glycine Uptake Inhibition Assay (mGlyT-1b)
On day 1 mammalian cells, (Flp-in™-CHO), transfected with mGlyT-1b cDNA, were plated at the density of 40,000 cells/well in complete F-12 medium, without hygromycin in 96-well culture plates. On day 2, the medium was aspirated, and the cells were washed twice with uptake buffer (UB). The cells were then incubated for 20 min at 22° C. with either (i) no potential competitor, (ii) 10 mM non-radioactive glycine, (iii) a concentration of a potential inhibitor. A range of concentrations of the potential inhibitor was used to generate data for calculating the concentration of inhibitor resulting in 50% of the effect (e.g. IC50, the concentration of the competitor inhibiting glycine uptake of 50%).
A solution was then immediately added containing [^3H]-glycine 60 nM (11-16 Ci/mmol) and 25 μM non-radioactive glycine. The plates were incubated with gentle shaking, and the reaction was stopped by aspiration of the mixture and washing (three times) with ice-cold UB. The cells were lysed with scintillation liquid, shaken 3 hours and the radioactivity in the cells counted using a scintillation counter.

| SMILES | pIC50 |
| --- | --- |
| CC(C)COc1ccc(S(C)(=O)=O)cc1C(=O)N1CCN(c2ccc(S(=O)(=O)C(F)(F)F)cc2)CC1 [Example 330, (2-Isobutoxy-5-methanesulfonyl-phenyl)-[4-(4-trifluoromethanesulfonyl-phenyl)-piperazin-1-yl]-methanone] | 7.74 |
| CNS(=O)(=O)c1ccc(OC(F)(F)F)c(C(=O)N2CCN(c3ccc(C#N)c(F)c3)CC2)c1 [compound 111] | 7.46 |
| CS(=O)(=O)c1ccc(OCCC(F)(F)F)c(C(=O)N2CCN(c3ccc(C(F)(F)F)cc3F)CC2)c1 [compound 117] | 7.36 |
| CC(C)COc1ccc(S(C)(=O)=O)cc1C(=O)N1CCN(c2cc(F)c(C#N)cc2F)CC1 [compound 132] | 7.42 |
| CS(=O)(=O)c1ccc(OC2CCCC2)c(C(=O)N2CCN(c3cc(F)c(C#N)cc3F)CC2)c1 [compound 135] | 7.39 |
| CC(=O)c1ccc(N2CCN(C(=O)c3cc(S(C)(=O)=O)ccc3OCC3CCC3)CC2)c(F)c1 [compound 142] | 7.47 |
| CS(=O)(=O)c1ccc(OCC2CCC2)c(C(=O)N2CCN(c3ccc(C(F)(F)F)cc3C#N)CC2)c1 [compound 144] | 7.35 |
| CS(=O)(=O)c1ccc(OCC2CCC2)c(C(=O)N2CCN(c3cc(F)c(C#N)c(F)c3)CC2)c1 [compound 148] | 7.44 |
| CS(=O)(=O)c1ccc(OCC2CC2)c(C(=O)N2CCN(c3c(F)cc(C#N)cc3F)CC2)c1 [compound 165] | 6.33 |
| CS(=O)(=O)c1ccc(OCC(F)(F)C(F)(F)F)c(C(=O)N2CCN(c3ccc(C#N)c(F)c3)CC2)c1 [compound 180] | 7.44 |
| CS(=O)(=O)c1ccc(OCC(F)(F)C(F)(F)F)c(C(=O)N2CCN(c3c(F)cc(C#N)cc3F)CC2)c1 [compound 186] | 7.32 |
| CS(=O)(=O)c1ccc(OC(CF)CF)c(C(=O)N2CCN(c3ccc(C(F)(F)F)cc3C#N)CC2)c1 [compound 194] | 7.33 |
| CC(C)(C)Oc1ccc(S(C)(=O)=O)cc1C(=O)N1CCN(c2ccc(C#N)c(F)c2F)CC1 [compound 196] | 7.39 |
| CS(=O)(=O)c1ccc(OCC(F)(F)C(F)F)c(C(=O)N2CCN(c3ccc(C#N)c(F)c3)CC2)c1 [compound 209] | 7.39 |
| CS(=O)(=O)c1ccc(OCC(F)(F)C(F)F)c(C(=O)N2CCN(c3ccc(C#N)cc3F)CC2)c1 [compound 210] | 7.41 |
| CS(=O)(=O)c1ccc(OCC(F)(F)C(F)F)c(C(=O)N2CCN(c3ccc(C(F)(F)F)cc3)CC2)c1 [compound 211] | 7.37 |
| CS(=O)(=O)c1ccc(OCC(F)(F)C(F)F)c(C(=O)N2CCN(c3c(F)cc(C#N)cc3F)CC2)c1 [compound 215] | 7.31 |
| CS(=O)(=O)c1ccc(OCC2CC2)c(C(=O)N2CCN(c3ccc(Cl)cc3C#N)CC2)c1 [compound 228] | 7.33 |
| CC(C)(C)Oc1ccc(S(C)(=O)=O)cc1C(=O)N1CCN(c2cc(F)c(C#N)cc2F)CC1 [compound 234] | 7.37 |
| CC(C)(C)Oc1ccc(S(C)(=O)=O)cc1C(=O)N1CCN(c2ccc(C#N)cc2F)CC1 [compound 244] | 7.38 |
| CC(C)(C)Oc1ccc(S(C)(=O)=O)cc1C(=O)N1CCN(c2c(F)cc(S(C)(=O)=O)cc2F)CC1 [compound 250] | 7.21 |
| CS(=O)(=O)c1ccc(OCC(F)(F)F)c(C(=O)N2CCN(c3ccc(Cl)c(Cl)c3)CC2)c1 [compound 251] | 7.49 |
| CS(=O)(=O)c1ccc(OC2CCCCC2)c(C(=O)N2CCN(c3ccc(C(F)(F)F)cc3)CC2)c1 [compound 285] | 7.38 |
| CS(=O)(=O)c1ccc(OC2CCCCC2)c(C(=O)N2CCN(c3ccc(C(F)(F)F)c(F)c3)CC2)c1 [compound 287] | 7.48 |

Continued by rising pIC50, values first:

| pIC50 | SMILES |
| --- | --- |
| 7.49 | CC(C)(C)Oc1ccc(S(C)(=O)=O)cc1C(=O)N1CCN(c2cc(F)c(S(C)(=O)=O)cc2F)CC1 [compound 249] |
| 7.51 | CS(=O)(=O)c1ccc(OCC2CCC2)c(C(=O)N2CCN(c3c(F)cc(C#N)cc3F)CC2)c1 [compound 147] |
| 7.51 | CS(=O)(=O)c1ccc(OCC2CC2)c(C(=O)N2CCN(c3cc(F)c(C#N)c(F)c3)CC2)c1 [compound 170] |
| 7.52 | CS(=O)(=O)c1ccc(OC2CCCC2)c(C(=O)N2CCN(c3ccc(C#N)c(F)c3F)CC2)c1 [compound 131] |
| 7.52 | CS(=O)(=O)c1ccc(OCC(F)(F)C(F)(F)F)c(C(=O)N2CCN(c3ccc(C(F)(F)F)cc3)CC2)c1 [compound 182] |
| 7.52 | CC(C)(C)Oc1ccc(S(C)(=O)=O)cc1C(=O)N1CCN(c2ccc(C(F)(F)F)cc2F)CC1 [compound 247] |
| 7.54 | CS(=O)(=O)c1ccc(OCC(F)(F)C(F)F)c(C(=O)N2CCN(c3ccc(C(F)(F)F)cc3F)CC2)c1 [compound 212] |
| 7.57 | CS(=O)(=O)c1ccc(OCC2CCC2)c(C(=O)N2CCN(c3ccc(C#N)cc3)CC2)c1 [compound 136] |
| 7.57 | CS(=O)(=O)c1ccc(OCC2CCC2)c(C(=O)N2CCN(c3ccc(C#N)c(F)c3)CC2)c1 [compound 137] |
| 7.57 | CS(=O)(=O)c1ccc(OC2CCCCC2)c(C(=O)N2CCN(c3ccc(C#N)cc3)CC2)c1 [compound 282] |
| 7.62 | CS(=O)(=O)c1ccc(OCCC(F)(F)F)c(C(=O)N2CCN(c3ccc(C#N)cc3F)CC2)c1 [compound 112] |
| 7.62 | CC(=O)c1ccc(N2CCN(C(=O)c3cc(S(C)(=O)=O)ccc3OCCC(F)(F)F)CC2)c(F)c1 [compound 118] |
| 7.62 | CS(=O)(=O)c1ccc(OCC2CCC2)c(C(=O)N2CCN(c3ccc(C(F)(F)F)cc3)CC2)c1 [compound 139] |
| 7.62 | CC(C)Oc1ccc(S(C)(=O)=O)cc1C(=O)N1CCN(c2ccc(Cl)cc2C#N)CC1 [compound 202] |
| 7.66 | CS(=O)(=O)c1ccc(OCC(F)(F)C(F)(F)F)c(C(=O)N2CCN(c3ccc(C#N)c(F)c3F)CC2)c1 [compound 184] |
| 7.68 | CC(C)Oc1ccc(S(C)(=O)=O)cc1C(=O)N1CCN(c2ccc(C#N)c(F)c2F)CC1 [compound 109] |
| 7.68 | CS(=O)(=O)c1ccc(OCC(F)(F)C(F)F)c(C(=O)N2CCN(c3ccc(C#N)c(F)c3F)CC2)c1 [compound 213] |
| 7.68 | CC(=O)c1ccc(N2CCN(C(=O)c3cc(S(C)(=O)=O)ccc3OC3CCCCC3)CC2)c(F)c1 [compound 281] |
| 7.70 | CC(C)COc1ccc(S(C)(=O)=O)cc1C(=O)N1CCN(c2ccc(C#N)c(F)c2F)CC1 [compound 128] |
| 7.72 | CS(=O)(=O)c1ccc(OCCC(F)(F)F)c(C(=O)N2CCN(c3ccc(C(F)(F)F)c(F)c3)CC2)c1 [compound 116] |
| 7.72 | CS(=O)(=O)c1ccc(OCC2CCC2)c(C(=O)N2CCN(c3cc(F)c(C#N)cc3F)CC2)c1 [compound 146] |
| 7.72 | CC(C)COc1ccc(S(C)(=O)=O)cc1C(=O)N1CCN(c2c(F)cc(C#N)cc2F)CC1 [compound 164] |
| 7.72 | CS(=O)(=O)c1ccc(OC2CCCC2)c(C(=O)N2CCN(c3cc(F)c(C#N)c(F)c3)CC2)c1 [compound 172] |
| 7.77 | CS(=O)(=O)c1ccc(OCC2CCC2)c(C(=O)N2CCN(c3ccc(C#N)cc3F)CC2)c1 [compound 138] |
| 7.80 | CS(=O)(=O)c1ccc(OC2CCCC2)c(C(=O)N2CCN(c3ccc(S(=O)(=O)C(F)(F)F)cc3)CC2)c1 [Example 329, (2-Cyclopentyloxy-5-methanesulfonyl-phenyl)-[4-(4-trifluoromethanesulfonyl-phenyl)-piperazin-1-yl]-methanone] |
| 7.80 | CS(=O)(=O)c1ccc(OC2CCCC2)c(C(=O)N2CCN(c3c(F)cc(C#N)cc3F)CC2)c1 [compound 167] |
| 7.82 | CS(=O)(=O)c1ccc(OCC2CCC2)c(C(=O)N2CCN(c3ccc(C#N)c(F)c3F)CC2)c1 [compound 145] |
| 7.92 | CC(C)COc1ccc(S(C)(=O)=O)cc1C(=O)N1CCN(c2cc(F)c(C#N)c(F)c2)CC1 [compound 169] |
| 8.00 | CS(=O)(=O)c1ccc(OC2CCCCC2)c(C(=O)N2CCN(c3ccc(C#N)c(F)c3)CC2)c1 [compound 284] |
| 8.10 | CS(=O)(=O)c1ccc(OC2CCCCC2)c(C(=O)N2CCN(c3ccc(C#N)cc3F)CC2)c1 [compound 283] |
